The record followed here is patent publication US20080260774A1, “Alpha-galactosyl ceramide analogs and their use as immunotherapies” (priority 2007, published 2008).

The assay deals with HA-specific peptide (9-mer). To be noted: mouse, in vivo.

The structures appear in SMILES notation.

With `CCCCCCCCCCCCCCCCCCCCCCCCCC(=O)N[C@@H](CO[C@H]1O[C@H](CO)[C@H](O)[C@H](O)[C@H]1O)[C@H](O)[C@H](O)CCCCCCCCCCCCCC` [C1, α-Galactosyl ceramide, reference compound], the IFN-γ secreting cells result is listed as “increased”.
